The values below come from ChEMBL document CHEMBL1275504, “Detection of macrolide resistance in Mycoplasma pneumoniae by real-time PCR and high-resolution melt analysis” (2008).

What all share (format): functional
Test [1] has as its system Mycoplasmoides pneumoniae. As to the kind of experiment: Antimicrobial activity against Mycoplasma pneumoniae isolate M129 by agar dilution method.
In test [2] the test system is Mycoplasmoides pneumoniae. As to the kind of experiment: Antimicrobial activity against Mycoplasma pneumoniae isolate FH by agar dilution method.
Test [3] concerns Mycoplasmoides pneumoniae. The test can be described thus: Antimicrobial activity against macrolide-resistant Mycoplasma pneumoniae isolate 6 with A2604G mutation by agar dilution method.
Test [4] concerns Mycoplasmoides pneumoniae. As to the kind of experiment: Antimicrobial activity against macrolide-resistant Mycoplasma pneumoniae isolate 11 with A2604G mutation by agar dilution method.
Test [5] concerns Mycoplasmoides pneumoniae. The test can be described thus: Antimicrobial activity against macrolide-resistant Mycoplasma pneumoniae isolate 2p with A2604G mutation by agar dilution method.
Test [6] deals with Mycoplasmoides pneumoniae. The test can be described thus: Antimicrobial activity against Mycoplasma pneumoniae isolate 18 by agar dilution method.
For test [7], the system named is Mycoplasmoides pneumoniae. As to the kind of experiment: Antimicrobial activity against Mycoplasma pneumoniae isolate 19 by agar dilution method.
Test [8] relates to Mycoplasmoides pneumoniae. As to the kind of experiment: Antimicrobial activity against macrolide-resistant Mycoplasma pneumoniae isolate 685 with A2603G mutation by agar dilution method.
Test [9] concerns Mycoplasmoides pneumoniae. As to the kind of experiment: Antimicrobial activity against macrolide-resistant Mycoplasma pneumoniae isolate 1006 with A2603G mutation by agar dilution method.

Converted amounts (≈) assume the structure as drawn.

Turning to `CC[C@H]1OC(=O)[C@H](C)[C@@H](O[C@H]2C[C@@](C)(OC)[C@@H](O)[C@H](C)O2)[C@H](C)[C@@H](O[C@@H]2O[C@H](C)C[C@H](N(C)C)[C@H]2O)[C@](C)(O)C[C@@H](C)C(=O)[C@H](C)[C@@H](O)[C@]1(C)O` [ERYTHROMYCIN], the minimum inhibitory concentration (MIC) in [1] came to 0.063 µg/mL (≈ 0.0858 µM); in test [2] it was 0.063 µg/mL (≈ 0.0858 µM); in [3] it was 128 µg/mL (≈ 174 µM); in test [4], 128 µg/mL (≈ 174 µM); in test [5], 128 µg/mL (≈ 174 µM); in [6], 0.063 µg/mL (≈ 0.0858 µM). The minimum inhibitory concentration (MIC) amounted to 0.063 µg/mL (≈ 0.0858 µM) in test [7], 128 µg/mL (≈ 174 µM) in test [8] and 128 µg/mL (≈ 174 µM) in [9].

Turning to `CN(C)c1ccc(O)c2c1C[C@H]1C[C@H]3[C@H](N(C)C)C(O)=C(C(N)=O)C(=O)[C@@]3(O)C(O)=C1C2=O` [MINOCYCLINE], the MIC in test [1] amounted to 0.25 µg/mL (≈ 0.546 µM); in test [2] it was 0.25 µg/mL (≈ 0.546 µM); in [3] it was 0.125 µg/mL (≈ 0.273 µM); in test [4] it was 0.125 µg/mL (≈ 0.273 µM); in test [5], 0.25 µg/mL (≈ 0.546 µM); in test [6], 0.125 µg/mL (≈ 0.273 µM). For the same compound, the MIC in [7], in test [8] and in [9] was 0.125 µg/mL (≈ 0.273 µM) throughout.

For `CN(C)[C@@H]1C(O)=C(C(N)=O)C(=O)[C@@]2(O)C(O)=C3C(=O)c4c(O)cccc4[C@@](C)(O)[C@H]3C[C@@H]12` [TETRACYCLINE], the minimum inhibitory concentration (MIC) in test [1] was 0.25 µg/mL (≈ 0.563 µM); in [2], 0.25 µg/mL (≈ 0.563 µM); in [3] it was 0.25 µg/mL (≈ 0.563 µM); in [4], 0.25 µg/mL (≈ 0.563 µM); in test [5], 0.25 µg/mL (≈ 0.563 µM); in test [6], 0.125 µg/mL (≈ 0.281 µM). The figures for the MIC in test [7], in [8] and in [9] were 0.25 µg/mL (≈ 0.563 µM), 0.25 µg/mL (≈ 0.563 µM) and 0.125 µg/mL (≈ 0.281 µM), respectively.
